# Data from article PMC9487510, “A Novel Oral GyrB/ParE Dual Binding Inhibitor Effective against Multidrug-Resistant Neisseria gonorrhoeae and Other High-Threat Pathogens” (Antimicrobial Agents and Chemotherapy, 2022).
# Like-named read-outs stand apart in the source and are kept apart here.
# Columns and labels:
# [1] = system: B. anthracis; assay: microbe, parasite or virus in culture; type: cell-based; conditions: for MIC: Bacillus anthracis
# [2] = system: E. coli, Pseudomonas aeruginosa, Klebsiella pneumoniae, Acinetobacter baumannii, Francisella tularensis, Yersinia pestis; assay: organism not typed; type: cell-based
# [3] = system: E. coli; assay: microbe, parasite or virus in culture; type: cell-based; conditions: Escherichia coli
# [4] = system: MRSE; assay: MIC, in vitro susceptibility testing (CLSI); type: cell-based, Staphylococcus epidermidis; conditions: for MIC: Staphylococcus epidermidis, MRSE, read-out: MIC
# [5] = system: VRSA; assay: MIC, in vitro susceptibility testing (CLSI); type: cell-based, Staphylococcus aureus; conditions: for MIC: Staphylococcus aureus, VRSA
# [6] = system: MRSA; type: cell-based, S. aureus; conditions: at 1× MIC; resistance not observed; data not shown
# [7] = system: vancomycin-resistant enterococci (VRE); assay: MIC, in vitro susceptibility testing (CLSI); type: cell-based; conditions: Enterococcus
# [8] = system: N. gonorrhoeae clinical isolates; assay: MIC, agar dilution (CLSI); type: cell-based, Neisseria gonorrhoeae; conditions: for MIC: read-out: MIC
smiles,measurement,setting,value
CNc1cc(F)cc2c1[nH]c1nc(Oc3cnc(C)nc3)nc(N3CCC4(CC3)CO[C@@H](CO)C4)c12 [JSF-2414],MIC,[1]; strain Ames,49 ng/mL
same,MIC,[1]; strain Vollum V1B,98 ng/mL
same,MIC range,[1]; N = 2,49 to 98 ng/mL
same,MIC,[2],> 500 ng/mL
same,MIC,[3],500 ng/mL
same,MIC range,[4]; N = 4,2 to 4 ng/mL
same,MIC,[4]; strain 9 25,4 ng/mL
same,MIC,[4]; strain 9 26,2 ng/mL
same,MIC,[4]; strain 9 27,2 ng/mL
same,MIC,[4]; strain 9 28,4 ng/mL
same,MIC range,[5]; N = 7 (Van: 9),15.6 to 31 ng/mL
same,MIC,[5]; strain 2 25 23,16 ng/mL
same,MIC,[5]; strain 2 25 24,16 to 31 ng/mL
same,MIC,[5]; strain 2 25 25,16 to 31 ng/mL
same,MIC,[5]; strain 2 25 26,15.6 to 31 ng/mL
same,MIC,[5]; strain 2 25 27,31 ng/mL
same,MIC,[5]; strain 2 25 28,15.6 to 31 ng/mL
same,MIC,[5]; strain VRS2 (VRS-2),31 ng/mL
same,spontaneous resistance frequency,[6],< 5.0 × 10^−9
same,MIC,[7]; strain 2138,> 500 ng/mL
same,MIC,[7]; strain 2139,2 ng/mL
same,MIC,[7]; strain 2927,8 ng/mL
same,MIC,[7]; strain 2966,4 ng/mL
same,MIC,[7]; strain 2967,31 ng/mL
same,MIC,[7]; strain 3090,> 500 ng/mL
same,MIC,[7]; strain 3091,2 ng/mL
same,MIC,[7]; strain 3322,16 ng/mL
same,MIC range,[8]; 96 clinical isolates,0.5 to 30 ng/mL
same,MIC,"[8]; Neisseria gonorrhoeae, ATCC700825, antibiotic-susceptible strain ATCC 700825",3.9 ng/mL
same,MIC,"[8]; Neisseria gonorrhoeae, multidrug-resistant strain H041",7.8 ng/mL
same,MIC,"[8]; Neisseria gonorrhoeae, strain CDC1 (GCREF2012 016)",3.9 ng/mL
same,MIC,"[8]; Neisseria gonorrhoeae, strain CDC2 (GCREF2012 045)",3.9 ng/mL
same,MIC,"[8]; Neisseria gonorrhoeae, strain CDC3 (GCREF2013 013)",3.9 ng/mL
same,MIC,"[8]; Neisseria gonorrhoeae, strain CDC4 (GCREF2013 030)",3.9 ng/mL
same,MIC,"[8]; Neisseria gonorrhoeae, strain CDC5 (GCREF2012 001)",3.9 ng/mL
same,MIC,"[8]; Neisseria gonorrhoeae, strain CDC6 (GCREF2012 002)",7.8 ng/mL
same,MIC,"[8]; Neisseria gonorrhoeae, strain CDC8 (GCREF2012 004)",2 ng/mL
same,MIC,"[8]; Neisseria gonorrhoeae, strain CDC9 (GCREF2012 005)",3.9 ng/mL
same,MIC,"[8]; Neisseria gonorrhoeae, strain CDC10 (GCREF2012 006)",3.9 ng/mL
same,MIC,"[8]; Neisseria gonorrhoeae, strain CDC11 (GCREF2012 007)",3.9 ng/mL
same,MIC,"[8]; Neisseria gonorrhoeae, strain CDC12 (GCREF2012 008)",3.9 ng/mL
same,MIC,"[8]; Neisseria gonorrhoeae, strain CDC13 (GCREF2012 009)",3.9 ng/mL
same,MIC,"[8]; Neisseria gonorrhoeae, strain CDC14 (GCREF2012 010)",3.9 ng/mL
same,MIC,"[8]; Neisseria gonorrhoeae, strain CDC15 (GCREF2012 011)",7.8 ng/mL
same,MIC,"[8]; Neisseria gonorrhoeae, strain CDC16 (GCREF2012 012)",7.8 ng/mL
same,MIC,"[8]; Neisseria gonorrhoeae, strain CDC18 (GCREF2012 014)",7.8 ng/mL
same,MIC,"[8]; Neisseria gonorrhoeae, strain CDC19 (GCREF2012 015)",3.9 ng/mL
same,MIC,"[8]; Neisseria gonorrhoeae, strain CDC20 (GCREF2012 017)",16 ng/mL
same,MIC,"[8]; Neisseria gonorrhoeae, strain CDC21 (GCREF2012 018)",3.9 ng/mL
same,MIC,"[8]; Neisseria gonorrhoeae, strain CDC22 (GCREF2012 019)",30 ng/mL
same,MIC,"[8]; Neisseria gonorrhoeae, strain CDC23 (GCREF2012 020)",7.8 ng/mL
same,MIC,"[8]; Neisseria gonorrhoeae, strain CDC24 (GCREF2012 021)",3.9 ng/mL
same,MIC,"[8]; Neisseria gonorrhoeae, strain CDC25 (GCREF2012 022)",3.9 ng/mL
same,MIC,"[8]; Neisseria gonorrhoeae, strain CDC26 (GCREF2012 023)",7.8 ng/mL
same,MIC,"[8]; Neisseria gonorrhoeae, strain CDC27 (GCREF2012 024)",3.9 ng/mL
same,MIC,"[8]; Neisseria gonorrhoeae, strain CDC28 (GCREF2012 025)",3.9 ng/mL
same,MIC,"[8]; Neisseria gonorrhoeae, strain CDC29 (GCREF2012 026)",7.8 ng/mL
same,MIC,"[8]; Neisseria gonorrhoeae, strain CDC30 (GCREF2012 027)",7.8 ng/mL
same,MIC,"[8]; Neisseria gonorrhoeae, strain CDC31 (GCREF2012 028)",7.8 ng/mL
same,MIC,"[8]; Neisseria gonorrhoeae, strain CDC32 (GCREF2012 029)",7.8 ng/mL
same,MIC,"[8]; Neisseria gonorrhoeae, strain CDC33 (GCREF2012 030)",7.8 ng/mL
same,MIC,"[8]; Neisseria gonorrhoeae, strain CDC34 (GCREF2012 031)",3.9 ng/mL
same,MIC,"[8]; Neisseria gonorrhoeae, strain CDC35 (GCREF2012 032)",3.9 ng/mL
same,MIC,"[8]; Neisseria gonorrhoeae, strain CDC36 (GCREF2012 033)",2 ng/mL
same,MIC,"[8]; Neisseria gonorrhoeae, strain CDC37 (GCREF2012 034)",3.9 ng/mL
same,MIC,"[8]; Neisseria gonorrhoeae, strain CDC38 (GCREF2012 035)",3.9 ng/mL
same,MIC,"[8]; Neisseria gonorrhoeae, strain CDC39 (GCREF2012 036)",3.9 ng/mL
same,MIC,"[8]; Neisseria gonorrhoeae, strain CDC40 (GCREF2012 037)",3.9 ng/mL
same,MIC,"[8]; Neisseria gonorrhoeae, strain CDC41 (GCREF2012 038)",3.9 ng/mL
same,MIC,"[8]; Neisseria gonorrhoeae, strain CDC42 (GCREF2012 039)",3.9 ng/mL
same,MIC,"[8]; Neisseria gonorrhoeae, strain CDC43 (GCREF2012 040)",3.9 ng/mL
same,MIC,"[8]; Neisseria gonorrhoeae, strain CDC45 (GCREF2012 042)",7.8 ng/mL
same,MIC,"[8]; Neisseria gonorrhoeae, strain CDC46 (GCREF2012 043)",3.9 ng/mL
same,MIC,"[8]; Neisseria gonorrhoeae, strain CDC47 (GCREF2012 044)",3.9 ng/mL
same,MIC,"[8]; Neisseria gonorrhoeae, strain CDC48 (GCREF2012 046)",3.9 ng/mL
same,MIC,"[8]; Neisseria gonorrhoeae, strain CDC49 (GCREF2012 047)",3.9 ng/mL
same,MIC,"[8]; Neisseria gonorrhoeae, strain CDC50 (GCREF2012 048)",7.8 ng/mL
same,MIC,"[8]; Neisseria gonorrhoeae, strain CDC51 (GCREF2012 049)",3.9 ng/mL
same,MIC,"[8]; Neisseria gonorrhoeae, strain CDC52 (GCREF2012 050)",3.9 ng/mL
same,MIC,"[8]; Neisseria gonorrhoeae, strain CDC53 (GCREF2012 051)",7.8 ng/mL
same,MIC,"[8]; Neisseria gonorrhoeae, strain CDC54 (GCREF2012 052)",3.9 ng/mL
same,MIC,"[8]; Neisseria gonorrhoeae, strain CDC55 (GCREF2013 001)",7.8 ng/mL
same,MIC,"[8]; Neisseria gonorrhoeae, strain CDC56 (GCREF2013 002)",3.9 ng/mL
same,MIC,"[8]; Neisseria gonorrhoeae, strain CDC57 (GCREF2013 003)",3.9 ng/mL
same,MIC,"[8]; Neisseria gonorrhoeae, strain CDC58 (GCREF2013 004)",2 ng/mL
same,MIC,"[8]; Neisseria gonorrhoeae, strain CDC59 (GCREF2013 044)",2 ng/mL
same,MIC,"[8]; Neisseria gonorrhoeae, strain CDC60 (GCREF2013 005)",7.8 ng/mL
same,MIC,"[8]; Neisseria gonorrhoeae, strain CDC61 (GCREF2013 006)",7.8 ng/mL
same,MIC,"[8]; Neisseria gonorrhoeae, strain CDC62 (GCREF2013 007)",16 ng/mL
same,MIC,"[8]; Neisseria gonorrhoeae, strain CDC63 (GCREF2013 008)",7.8 ng/mL
same,MIC,"[8]; Neisseria gonorrhoeae, strain CDC64 (GCREF2013 009)",16 ng/mL
same,MIC,"[8]; Neisseria gonorrhoeae, strain CDC65 (GCREF2013 010)",7.8 ng/mL
same,MIC,"[8]; Neisseria gonorrhoeae, strain CDC66 (GCREF2013 011)",16 ng/mL
same,MIC,"[8]; Neisseria gonorrhoeae, strain CDC67 (GCREF2013 014)",7.8 ng/mL
same,MIC,"[8]; Neisseria gonorrhoeae, strain CDC68 (GCREF2013 016)",2 ng/mL
same,MIC,"[8]; Neisseria gonorrhoeae, strain CDC69 (GCREF2013 017)",2 ng/mL
same,MIC,"[8]; Neisseria gonorrhoeae, strain CDC70 (GCREF2013 018)",3.9 ng/mL
same,MIC,"[8]; Neisseria gonorrhoeae, strain CDC71 (GCREF2013 019)",16 ng/mL
same,MIC,"[8]; Neisseria gonorrhoeae, strain CDC72 (GCREF2013 020)",7.8 ng/mL
same,MIC,"[8]; Neisseria gonorrhoeae, strain CDC73 (GCREF2013 021)",16 ng/mL
same,MIC,"[8]; Neisseria gonorrhoeae, strain CDC74 (GCREF2013 022)",16 ng/mL
same,MIC,"[8]; Neisseria gonorrhoeae, strain CDC75 (GCREF2013 023)",7.8 ng/mL
same,MIC,"[8]; Neisseria gonorrhoeae, strain CDC76 (GCREF2013 024)",7.8 ng/mL
same,MIC,"[8]; Neisseria gonorrhoeae, strain CDC77 (GCREF2013 025)",7.8 ng/mL
same,MIC,"[8]; Neisseria gonorrhoeae, strain CDC78 (GCREF2013 026)",0.5 ng/mL
same,MIC,"[8]; Neisseria gonorrhoeae, strain CDC79 (GCREF2013 027)",3.9 ng/mL
same,MIC,"[8]; Neisseria gonorrhoeae, strain CDC80 (GCREF2013 028)",3.9 ng/mL
same,MIC,"[8]; Neisseria gonorrhoeae, strain CDC81 (GCREF2013 029)",3.9 ng/mL
same,MIC,"[8]; Neisseria gonorrhoeae, strain CDC82 (GCREF2013 031)",7.8 ng/mL
same,MIC,"[8]; Neisseria gonorrhoeae, strain CDC83 (GCREF2013 032)",16 ng/mL
same,MIC,"[8]; Neisseria gonorrhoeae, strain CDC84 (GCREF2013 033)",7.8 ng/mL
same,MIC,"[8]; Neisseria gonorrhoeae, strain CDC86 (GCREF2013 035)",7.8 ng/mL
same,MIC,"[8]; Neisseria gonorrhoeae, strain CDC87 (GCREF2013 036)",3.9 ng/mL
same,MIC,"[8]; Neisseria gonorrhoeae, strain CDC88 (GCREF2013 037)",7.8 ng/mL
same,MIC,"[8]; Neisseria gonorrhoeae, strain CDC89 (GCREF2013 038)",3.9 ng/mL
same,MIC,"[8]; Neisseria gonorrhoeae, strain CDC90 (GCREF2013 039)",7.8 ng/mL
same,MIC,"[8]; Neisseria gonorrhoeae, strain CDC91 (GCREF2013 040)",7.8 ng/mL
same,MIC,"[8]; Neisseria gonorrhoeae, strain CDC92 (GCREF2013 041)",3.9 ng/mL
same,MIC,"[8]; Neisseria gonorrhoeae, strain CDC93 (GCREF2013 042)",3.9 ng/mL
same,MIC,"[8]; Neisseria gonorrhoeae, strain CDC94 (GCREF2013 043)",7.8 ng/mL
same,MIC,"[8]; Neisseria gonorrhoeae, strain CDC95 (GCREF2013 045)",7.8 ng/mL
same,MIC,"[8]; Neisseria gonorrhoeae, strain CDC96 (GCREF2013 046)",2 ng/mL
same,MIC,"[8]; Neisseria gonorrhoeae, strain CDC97 (GCREF2013 047)",3.9 ng/mL
same,MIC,"[8]; Neisseria gonorrhoeae, strain CDC98 (GCREF2013 048)",7.8 ng/mL
same,MIC,"[8]; Neisseria gonorrhoeae, strain CDC99 (GCREF2013 012)",7.8 ng/mL
same,MIC,"[8]; Neisseria gonorrhoeae, strain CDC100 (GCREF2013 015)",3.9 ng/mL
same,MIC50,"[8]; Neisseria gonorrhoeae, 96 clinical isolates, read-out: MIC50",3.9 ng/mL
same,MIC90,"[8]; Neisseria gonorrhoeae, 96 clinical isolates, read-out: MIC90",7.8 ng/mL
